“Also recorded” adds a separate entry of the source.
Legend:
[1] = tested on: rat; experiment: Salivation following i.p. injections in the rat; assay type: in vivo
Text: FIG. 6 presents a graph comparing the effects of CDD-0102A on memory function and salivation following i.p. injections in the rat.

[2] = tested on: Long Evans rats; experiment: Delayed spontaneous alternation in four-arm cross maze (working memory); assay type: in vivo, rat
Text: Various neurodegenerative diseases and psychiatric disorders are marked by alterations in brain M1 muscarinic cholinergic receptor function and cognitive deficits including working memory and cognitive flexibility impairments. Alleviating such deficits in conditions such as Alzheimer's disease and schizophrenia has been limited due to a lack of agonists with M1 muscarinic receptor subtype specificity. CDD-102A is a functionally-selective M1 agonist with lower activity at other muscarinic receptor subtypes. The present experiment investigated the effects of systemic treatment with CDD-102A on working memory and/or attentional set-shifting in rats. All testing occurred in a four-arm cross maze. Delayed (30 sec) spontaneous alternation in Long Evans rats was used as a test for working memory. […] A shift between a place and visual cue discrimination was used as an attentional set-shifting test. In this set of experiments, rats received either vehicle or CDD-102A (0.003-0.1 mg/kg) 30 minutes prior to testing in a place-visual cue set-shifting task. To evaluate the effects of muscarinic agonists on memory function in normal animals, rats were tested on a delayed spontaneous alternation task in a modified T-maze. The task takes advantage of rats' natural tendency to alternate. Animals were placed in a 4-arm maze shaped like a “+”. If a rat chose four different arms in four consecutive choices it was scored as an alternation. A delay was inserted between arm choices to help assess memory function. In the delay version of the task, CDD-0102A (a functionally selective M1 agonist) improved memory function in a dose dependent manner (see FIG. 1). All testing was carried out in a four-arm cross-maze made of 0.6 cm thick black plastic was used for all behavioral testing. The maze was placed on a table that was 72 cm above the floor. Each arm was 55 cm long 10 cm wide. The height of the arm walls was 15.0 cm. […] The number and sequence of arm entries was recorded. An arm entry was recorded when all four paws entered an arm. […]

[3] = tested on: rats; experiment: Place-visual cue attentional set-shifting task (cognitive flexibility); assay type: in vivo, rat
Text: Various neurodegenerative diseases and psychiatric disorders are marked by alterations in brain M1 muscarinic cholinergic receptor function and cognitive deficits including working memory and cognitive flexibility impairments. Alleviating such deficits in conditions such as Alzheimer's disease and schizophrenia has been limited due to a lack of agonists with M1 muscarinic receptor subtype specificity. CDD-102A is a functionally-selective M1 agonist with lower activity at other muscarinic receptor subtypes. The present experiment investigated the effects of systemic treatment with CDD-102A on working memory and/or attentional set-shifting in rats. All testing occurred in a four-arm cross maze. Delayed (30 sec) spontaneous alternation in Long Evans rats was used as a test for working memory. […] A shift between a place and visual cue discrimination was used as an attentional set-shifting test. In this set of experiments, rats received either vehicle or CDD-102A (0.003-0.1 mg/kg) 30 minutes prior to testing in a place-visual cue set-shifting task. A treatment was administered either prior to the acquisition phase or prior to the shift phase. […] To examine cognitive flexibility, animals were evaluated for their ability to learn a place-visual cue task. Local cues in the maze arms included a black board in one arm and white board in the other arm. The cues were switched between the choice arms randomly across trials so the same cue was not always in the same location. Rats first learned to use a place strategy—always enter the same arm to receive a cereal reinforcement. Criterion was set at 10 consecutive correct trials. No treatment was given to rats prior to learning the place strategy test. The results are shown with the two bars on the left side of the graph in FIG. 2, showing that learning of a place-visual cue task. CDD-0102A, at a dose of 0.03 mg/kg decreased the number of trials to criterion (10 consecutive correct choices). Vehicle (N=3), CDD-0102A (N=4). The following day, rats had to inhibit using a place strategy and learn a visual cue strategy. That is, a rat had to choose the arm that contained a particular color cue (e.g., black). The criterion again was set at 10 consecutive correct trials. Rats received either saline (N=3) or CDD-0102A at 0.03 or 0.1 mg/kg (N=4) 30 minutes prior to testing. The results are shown in the middle of FIG. 2. […] Similar studies evaluated the ability of animals to shift from learning a visual cue task to a place strategy. Again criterion was set at 10 consecutive correct trials. Rats received either saline (N=3) or CDD-0102A at 0.03 or 0.1 mg/kg (N=4) 30 minutes prior to testing. The results are shown in the middle of FIG. 3. […] All testing was carried out in a four-arm cross-maze made of 0.6 cm thick black plastic was used for all behavioral testing. The maze was placed on a table that was 72 cm above the floor. Each arm was 55 cm long 10 cm wide. The height of the arm walls was 15.0 cm. Each arm contained a food well (3.2 cm diameter×1.6 cm high) that was 3 cm away from the end wall. Each food-well hole was 2.3 cm in diameter and 1.6 cm deep.

[4] = tested on: Alzheimer's subjects; conditions: cited from earlier work
[5] = rats, 0.03 or 0.1 mg/kg 30 minutes prior to testing, compared to controls, hydrochloride
[6] = shift from place cue task to visual cue task, 0.03 and 0.1 mg/kg
[7] = shift from visual cue task to place cue task, 0.03 and 0.1 mg/kg

Lowest dose producing salivation [1] [mg/kg] | Separation between the dose enhancing place-visual cue learning (0.03 mg/kg i.p.) and the lowest dose producing salivation [1] | SMILES | Memory function in the delay version of the spontaneous alternation task ([2]; normal rats, i.p., dose dependent (FIG. 1)) | Delayed spontaneous alternation performance ([2]; rats, 0.1, 0.3 and 1 mg/kg i.p. 30 minutes before testing, 30 sec delay, listed as CDD-102A, hydrochloride) | Number of arm entries (locomotor activity) ([2]; rats, all the doses tested, i.p.) | Acquisition of a place or visual cue discrimination ([3]; rats, 0.003-0.1 mg/kg 30 minutes prior to the acquisition phase) | Shift between a place and visual cue discrimination ([3]; rats, 0.03 and 0.1 mg/kg, 30 minutes prior to the shift phase) | Trials to criterion (10 consecutive correct choices), shift from place cue task to visual cue task [3, 5] | Trials to criterion (10 consecutive correct choices), shift from visual cue task to place cue task [3, 5] | Ability to initially inhibit a previously relevant strategy and maintain a new, relevant strategy once selected ([3]; rats, shift to the place or to the visual cue strategy) | Number of never-reinforced errors [3, 6] | Number of perseverative errors [3, 6] | Number of regressive errors [3, 6] | Number of never-reinforced errors [3, 7] | Number of perseverative errors [3, 7] | Number of regressive errors [3, 7] | Side effects associated with activation of M3 receptors (salivation, diarrhea and profuse sweating) ([4]; Alzheimer's subjects, limited subject compliance) | Psychiatric symptoms such as hallucinations ([4]; phase II clinical trials in Alzheimer's subjects)
0.3 | ten-fold lower | CCc1noc(C2CN=CNC2)n1.Cl (stereo not drawn) [CDD-0102A, 5-(3-ethyl-1,2,4-oxadiazol-5-yl)-1,4,5,6-tetrahydropyrimidine hydrochloride] | improved | significantly enhanced | did not alter | did not affect | significantly enhanced | about half the trials; also recorded: decreased | decreased; also recorded: about half the trials | significantly increased | decreased | decreased | decreased | no significant impact | decreased | decreased |  | 
 |  | CCCCCCOc1nsnc1C1=CCCN(C)C1 [xanomeline] |  |  |  |  |  |  |  |  |  |  |  |  |  |  | produced unwanted side effects | significantly improved

From patent US10835532B2, “Muscarinic agonists as cognitive enhancers” (The University of Toledo, priority 2008, dated 2020)
